Measurements: article PMC8371461 (Frontiers in Pharmacology, 2021)

What was measured:
[1] = molecular target: T1, PAK6 (Homo sapiens, UniProt Q9NQU5); assay: kinome scan; assay type: binding; conditions: 10 µM
T1 construct: purchased DiscoverX (KINOMEscan)

[2] = molecular target: T2, PIK3CA(E542K) (Homo sapiens, UniProt P42336, E542K); assay: kinome scan; assay type: binding; conditions: 10 µM
T2 construct: purchased DiscoverX (KINOMEscan)

[3] = molecular target: T3, ABL1(F317L)-phosphorylated (Homo sapiens, UniProt P00519, F317L); assay: kinome scan; assay type: binding; conditions: 10 µM
T3 construct: purchased DiscoverX (KINOMEscan)

[4] = molecular target: T4, PCTK3 (Homo sapiens, UniProt Q07002); assay: kinome scan; assay type: binding; conditions: 10 µM
T4 construct: purchased DiscoverX (KINOMEscan)

[5] = molecular target: T5, FGFR3 (Homo sapiens, UniProt P22607); assay: kinome scan; assay type: binding; conditions: 10 µM
T5 construct: purchased DiscoverX (KINOMEscan)

[6] = molecular target: T6, MAP4K4 (Homo sapiens, UniProt O95819); assay: kinome scan; assay type: binding; conditions: 10 µM
T6 construct: purchased DiscoverX (KINOMEscan)

[7] = molecular target: T7, LTK (Homo sapiens, UniProt P29376); assay: kinome scan; assay type: binding; conditions: 10 µM
T7 construct: purchased DiscoverX (KINOMEscan)

[8] = molecular target: T8, BMPR2 (Homo sapiens, UniProt Q13873); assay: kinome scan; assay type: binding; conditions: 10 µM
T8 construct: purchased DiscoverX (KINOMEscan)

[9] = molecular target: T9, YES (Homo sapiens, UniProt P07947); assay: kinome scan; assay type: binding; conditions: 10 µM
T9 construct: purchased DiscoverX (KINOMEscan)

[10] = molecular target: T10, SYK (Homo sapiens, UniProt P43405); assay: kinome scan; assay type: binding; conditions: 10 µM
T10 construct: purchased DiscoverX (KINOMEscan)

[11] = molecular target: T11, CDK8 (Homo sapiens, UniProt P49336); assay: kinome scan; assay type: binding; conditions: 10 µM
T11 construct: purchased DiscoverX (KINOMEscan)

[12] = molecular target: T12, CSNK1A1 (Homo sapiens, UniProt P48729); assay: kinome scan; assay type: binding; conditions: 10 µM
T12 construct: purchased DiscoverX (KINOMEscan)
T12 sequence (P48729 whole entry): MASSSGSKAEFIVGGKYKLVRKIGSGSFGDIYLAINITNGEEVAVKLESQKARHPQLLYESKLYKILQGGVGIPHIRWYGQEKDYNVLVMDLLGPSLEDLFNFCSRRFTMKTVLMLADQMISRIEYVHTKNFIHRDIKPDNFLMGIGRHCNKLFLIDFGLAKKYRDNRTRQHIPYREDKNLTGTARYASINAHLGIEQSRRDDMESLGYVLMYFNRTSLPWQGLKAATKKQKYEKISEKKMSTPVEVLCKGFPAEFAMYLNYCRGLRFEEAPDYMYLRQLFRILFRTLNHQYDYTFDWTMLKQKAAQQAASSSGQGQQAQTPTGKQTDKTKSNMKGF

[13] = molecular target: T13, IKK-beta (Homo sapiens, UniProt O14920); assay: kinome scan; assay type: binding; conditions: 10 µM
T13 construct: purchased DiscoverX (KINOMEscan)

[14] = molecular target: T14, STK39 (Homo sapiens, UniProt Q9UEW8); assay: kinome scan; assay type: binding; conditions: 10 µM
T14 construct: purchased DiscoverX (KINOMEscan)

[15] = molecular target: T15, MST1R (Homo sapiens, UniProt Q04912); assay: kinome scan; assay type: binding; conditions: 10 µM
T15 construct: purchased DiscoverX (KINOMEscan)

[16] = molecular target: T16, PDPK1 (Homo sapiens, UniProt O15530); assay: kinome scan; assay type: binding; conditions: 10 µM
T16 construct: purchased DiscoverX (KINOMEscan)

[17] = system: AKT; assay: AKT phosphorylation at the protein level in PSC; assay type: cell-based, mouse; conditions: 10 µM, 10 min, 1 and 3 h after exposure
[18] = molecular target: T17, p38-gamma (Homo sapiens, UniProt P53778); assay: kinome scan; assay type: binding; conditions: 10 µM
T17 construct: purchased DiscoverX (KINOMEscan)

[19] = molecular target: T18, ABL1(T315I)-phosphorylated (Homo sapiens, UniProt P00519, T315I); assay: kinome scan; assay type: binding; conditions: 10 µM
T18 construct: purchased DiscoverX (KINOMEscan)

[20] = molecular target: T19, MYLK4 (Homo sapiens, UniProt Q86YV6); assay: kinome scan; assay type: binding; conditions: 10 µM
T19 construct: purchased DiscoverX (KINOMEscan)

[21] = molecular target: T20, BRSK1 (Homo sapiens, UniProt Q8TDC3); assay: kinome scan; assay type: binding; conditions: 10 µM
T20 construct: purchased DiscoverX (KINOMEscan)
T20 sequence (Q8TDC3 whole entry): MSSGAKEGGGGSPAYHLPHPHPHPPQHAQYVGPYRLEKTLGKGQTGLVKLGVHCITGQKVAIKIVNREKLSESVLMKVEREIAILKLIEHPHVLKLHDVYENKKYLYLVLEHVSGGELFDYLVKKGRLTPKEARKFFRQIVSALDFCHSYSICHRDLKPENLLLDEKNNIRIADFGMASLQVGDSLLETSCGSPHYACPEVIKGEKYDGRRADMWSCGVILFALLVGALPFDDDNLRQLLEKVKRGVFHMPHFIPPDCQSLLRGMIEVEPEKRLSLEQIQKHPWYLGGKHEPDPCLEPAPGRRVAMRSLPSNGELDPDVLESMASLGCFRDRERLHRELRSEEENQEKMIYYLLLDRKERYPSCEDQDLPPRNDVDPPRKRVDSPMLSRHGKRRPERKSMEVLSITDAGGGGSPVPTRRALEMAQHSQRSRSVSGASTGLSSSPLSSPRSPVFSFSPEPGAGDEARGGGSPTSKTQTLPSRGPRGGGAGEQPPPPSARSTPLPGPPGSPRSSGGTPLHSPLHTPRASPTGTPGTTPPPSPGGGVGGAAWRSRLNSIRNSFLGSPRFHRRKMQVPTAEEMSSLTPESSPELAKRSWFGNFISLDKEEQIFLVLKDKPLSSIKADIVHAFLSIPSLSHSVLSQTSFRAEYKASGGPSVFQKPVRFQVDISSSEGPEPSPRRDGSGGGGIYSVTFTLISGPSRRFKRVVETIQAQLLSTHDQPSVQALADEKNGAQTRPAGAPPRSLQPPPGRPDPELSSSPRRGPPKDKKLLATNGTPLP

[22] = molecular target: T21, INSRR (Homo sapiens, UniProt P14616); assay: kinome scan; assay type: binding; conditions: 10 µM
T21 construct: purchased DiscoverX (KINOMEscan)

[23] = molecular target: T22, AKT3 (Homo sapiens, UniProt Q9Y243); assay: kinome scan; assay type: binding; conditions: 10 µM
T22 construct: purchased DiscoverX (KINOMEscan)
T22 sequence (Q9Y243 whole entry): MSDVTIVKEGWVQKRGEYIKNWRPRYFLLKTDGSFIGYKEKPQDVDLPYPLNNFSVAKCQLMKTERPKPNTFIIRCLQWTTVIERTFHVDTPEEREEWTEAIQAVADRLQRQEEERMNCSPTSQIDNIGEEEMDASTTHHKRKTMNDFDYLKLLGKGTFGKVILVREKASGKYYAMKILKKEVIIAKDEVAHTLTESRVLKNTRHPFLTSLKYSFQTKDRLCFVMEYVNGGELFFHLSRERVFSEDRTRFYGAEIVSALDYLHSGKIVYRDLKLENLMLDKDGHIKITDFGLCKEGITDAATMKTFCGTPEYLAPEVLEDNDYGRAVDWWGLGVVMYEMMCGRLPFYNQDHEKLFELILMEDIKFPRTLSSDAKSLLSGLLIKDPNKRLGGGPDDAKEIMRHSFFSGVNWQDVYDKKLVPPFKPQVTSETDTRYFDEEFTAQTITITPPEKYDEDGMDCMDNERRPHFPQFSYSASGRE

[24] = molecular target: T23, TRKB (Homo sapiens, UniProt Q16620); assay: kinome scan; assay type: binding; conditions: 10 µM
T23 construct: purchased DiscoverX (KINOMEscan)

[25] = molecular target: T24, PKAC-beta (Homo sapiens, UniProt P22694); assay: kinome scan; assay type: binding; conditions: 10 µM
T24 construct: purchased DiscoverX (KINOMEscan)

[26] = molecular target: T25, KIT(A829P) (Homo sapiens, UniProt P10721, A829P); assay: kinome scan; assay type: binding; conditions: 10 µM
T25 construct: purchased DiscoverX (KINOMEscan)

[27] = molecular target: T26, EGFR(L747-E749delA750P) (Homo sapiens, UniProt P00533, A750P/DEL747-749); assay: kinome scan; assay type: binding; conditions: 10 µM
T26 construct: purchased DiscoverX (KINOMEscan)

[28] = molecular target: T27, SIK2 (Homo sapiens, UniProt Q9H0K1); assay: kinome scan; assay type: binding; conditions: 10 µM
T27 construct: purchased DiscoverX (KINOMEscan)

[29] = molecular target: T28, BRK (Homo sapiens, UniProt Q13882); assay: kinome scan; assay type: binding; conditions: 10 µM
T28 construct: purchased DiscoverX (KINOMEscan)
T28 sequence (Q13882 whole entry): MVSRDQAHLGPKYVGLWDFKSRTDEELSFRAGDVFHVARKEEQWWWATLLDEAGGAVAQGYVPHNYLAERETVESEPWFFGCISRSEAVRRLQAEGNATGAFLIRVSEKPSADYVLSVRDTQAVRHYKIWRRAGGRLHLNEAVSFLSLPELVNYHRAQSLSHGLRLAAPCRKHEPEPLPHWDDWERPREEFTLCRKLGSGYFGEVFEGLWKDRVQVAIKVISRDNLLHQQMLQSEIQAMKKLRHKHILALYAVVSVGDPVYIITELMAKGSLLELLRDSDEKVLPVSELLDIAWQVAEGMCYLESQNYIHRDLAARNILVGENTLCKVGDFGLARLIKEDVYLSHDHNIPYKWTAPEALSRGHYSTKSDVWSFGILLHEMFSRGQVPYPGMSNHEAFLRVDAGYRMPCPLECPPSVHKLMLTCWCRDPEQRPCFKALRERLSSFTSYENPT

[30] = molecular target: T29, CAMK1G (Homo sapiens, UniProt Q96NX5); assay: kinome scan; assay type: binding; conditions: 10 µM
T29 construct: purchased DiscoverX (KINOMEscan)

[31] = molecular target: T30, ROCK2 (Homo sapiens, UniProt O75116); assay: kinome scan; assay type: binding; conditions: 10 µM
T30 construct: purchased DiscoverX (KINOMEscan)

[32] = molecular target: T31, CAMKK2 (Homo sapiens, UniProt Q96RR4); assay: kinome scan; assay type: binding; conditions: 10 µM
T31 construct: purchased DiscoverX (KINOMEscan)

[33] = molecular target: T32, RIPK1 (Homo sapiens, UniProt Q13546); assay: kinome scan; assay type: binding; conditions: 10 µM
T32 construct: purchased DiscoverX (KINOMEscan)

[34] = molecular target: T33, FLT3(K663Q) (Homo sapiens, UniProt P36888, K663Q); assay: kinome scan; assay type: binding
T33 construct: purchased DiscoverX (KINOMEscan)

[35] = molecular target: T34, CSNK1E (Homo sapiens, UniProt P49674); assay: kinome scan; assay type: binding; conditions: 10 µM
T34 construct: purchased DiscoverX (KINOMEscan)
T34 sequence (P49674 whole entry): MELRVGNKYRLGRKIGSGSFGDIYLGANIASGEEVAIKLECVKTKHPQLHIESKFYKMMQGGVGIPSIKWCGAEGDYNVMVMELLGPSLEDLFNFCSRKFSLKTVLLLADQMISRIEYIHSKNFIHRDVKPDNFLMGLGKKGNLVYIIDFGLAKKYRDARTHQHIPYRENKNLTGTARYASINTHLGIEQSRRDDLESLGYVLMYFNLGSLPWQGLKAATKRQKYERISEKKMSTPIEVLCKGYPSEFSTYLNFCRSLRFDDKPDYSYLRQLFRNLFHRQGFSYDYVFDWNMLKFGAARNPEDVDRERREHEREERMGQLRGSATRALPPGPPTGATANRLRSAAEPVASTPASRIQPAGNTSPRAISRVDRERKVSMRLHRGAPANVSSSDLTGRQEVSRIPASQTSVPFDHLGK

[36] = molecular target: T35, CDK4-cyclinD1 (Homo sapiens, UniProt P11802); assay: kinome scan; assay type: binding; conditions: 10 µM
T35 construct: purchased DiscoverX (KINOMEscan)

[37] = molecular target: T36, JNK1 (Homo sapiens, UniProt P45983); assay: kinome scan; assay type: binding; conditions: 10 µM
T36 construct: purchased DiscoverX (KINOMEscan)

[38] = molecular target: T37, MST1 (Homo sapiens, UniProt Q13043); assay: kinome scan; assay type: binding; conditions: 10 µM
T37 construct: purchased DiscoverX (KINOMEscan)
T37 sequence (Q13043 whole entry): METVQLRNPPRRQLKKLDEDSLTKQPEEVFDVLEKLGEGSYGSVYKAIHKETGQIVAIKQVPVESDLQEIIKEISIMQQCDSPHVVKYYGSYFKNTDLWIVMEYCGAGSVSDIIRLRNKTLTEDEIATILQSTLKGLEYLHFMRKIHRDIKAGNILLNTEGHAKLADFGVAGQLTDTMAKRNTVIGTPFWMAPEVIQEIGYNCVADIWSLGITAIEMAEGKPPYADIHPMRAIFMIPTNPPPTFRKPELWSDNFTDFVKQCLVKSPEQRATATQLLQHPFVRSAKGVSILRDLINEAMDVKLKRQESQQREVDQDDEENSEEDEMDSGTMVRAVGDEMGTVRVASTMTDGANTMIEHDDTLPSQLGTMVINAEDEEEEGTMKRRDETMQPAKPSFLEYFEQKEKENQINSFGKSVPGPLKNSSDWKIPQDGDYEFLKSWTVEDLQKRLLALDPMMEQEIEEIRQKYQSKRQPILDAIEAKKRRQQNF

[39] = molecular target: T38, MAP3K1 (Homo sapiens, UniProt Q13233); assay: kinome scan; assay type: binding; conditions: 10 µM
T38 construct: purchased DiscoverX (KINOMEscan)
T38 sequence (Q13233 whole entry): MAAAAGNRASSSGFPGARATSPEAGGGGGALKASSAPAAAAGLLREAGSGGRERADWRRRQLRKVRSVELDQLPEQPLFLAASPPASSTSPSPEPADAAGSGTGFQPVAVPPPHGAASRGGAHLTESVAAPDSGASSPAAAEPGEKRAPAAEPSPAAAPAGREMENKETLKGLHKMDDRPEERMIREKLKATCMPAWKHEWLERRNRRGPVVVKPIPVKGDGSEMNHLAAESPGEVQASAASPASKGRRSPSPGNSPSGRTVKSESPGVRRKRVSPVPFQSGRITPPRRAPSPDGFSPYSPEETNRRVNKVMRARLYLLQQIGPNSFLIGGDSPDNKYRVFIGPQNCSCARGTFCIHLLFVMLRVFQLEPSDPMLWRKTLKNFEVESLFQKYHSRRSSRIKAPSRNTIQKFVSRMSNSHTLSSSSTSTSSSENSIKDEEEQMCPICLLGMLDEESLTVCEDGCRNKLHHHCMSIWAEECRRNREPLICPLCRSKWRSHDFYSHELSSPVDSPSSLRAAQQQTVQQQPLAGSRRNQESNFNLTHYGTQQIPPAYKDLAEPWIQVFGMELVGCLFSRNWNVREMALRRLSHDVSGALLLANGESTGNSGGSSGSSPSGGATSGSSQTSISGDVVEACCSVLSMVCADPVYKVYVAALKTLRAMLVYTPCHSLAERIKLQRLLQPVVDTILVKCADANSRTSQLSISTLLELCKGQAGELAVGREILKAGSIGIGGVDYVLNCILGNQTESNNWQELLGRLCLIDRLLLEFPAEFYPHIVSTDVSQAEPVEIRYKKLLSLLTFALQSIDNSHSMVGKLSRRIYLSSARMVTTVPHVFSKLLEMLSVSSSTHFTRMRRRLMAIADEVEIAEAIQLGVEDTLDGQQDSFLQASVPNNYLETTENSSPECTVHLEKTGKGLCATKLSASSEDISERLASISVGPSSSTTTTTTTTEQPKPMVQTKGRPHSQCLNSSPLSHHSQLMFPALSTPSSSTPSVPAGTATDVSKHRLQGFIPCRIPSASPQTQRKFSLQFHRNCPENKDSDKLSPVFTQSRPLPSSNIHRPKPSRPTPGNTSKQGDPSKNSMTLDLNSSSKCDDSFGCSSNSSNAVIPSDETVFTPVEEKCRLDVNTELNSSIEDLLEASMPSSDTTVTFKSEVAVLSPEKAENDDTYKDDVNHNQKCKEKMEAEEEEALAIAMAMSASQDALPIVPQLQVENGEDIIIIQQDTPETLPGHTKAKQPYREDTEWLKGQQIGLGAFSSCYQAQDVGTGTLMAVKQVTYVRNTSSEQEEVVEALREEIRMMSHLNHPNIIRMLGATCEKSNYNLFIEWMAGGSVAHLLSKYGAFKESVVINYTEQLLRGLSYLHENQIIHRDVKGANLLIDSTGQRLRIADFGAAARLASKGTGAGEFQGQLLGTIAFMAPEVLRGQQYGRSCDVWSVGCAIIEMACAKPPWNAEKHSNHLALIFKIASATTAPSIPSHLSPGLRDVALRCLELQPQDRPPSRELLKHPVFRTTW

[40] = molecular target: T39, GRK1 (Homo sapiens, UniProt Q15835); assay: kinome scan; assay type: binding; conditions: 10 µM
T39 construct: purchased DiscoverX (KINOMEscan)
T39 sequence (Q15835 whole entry): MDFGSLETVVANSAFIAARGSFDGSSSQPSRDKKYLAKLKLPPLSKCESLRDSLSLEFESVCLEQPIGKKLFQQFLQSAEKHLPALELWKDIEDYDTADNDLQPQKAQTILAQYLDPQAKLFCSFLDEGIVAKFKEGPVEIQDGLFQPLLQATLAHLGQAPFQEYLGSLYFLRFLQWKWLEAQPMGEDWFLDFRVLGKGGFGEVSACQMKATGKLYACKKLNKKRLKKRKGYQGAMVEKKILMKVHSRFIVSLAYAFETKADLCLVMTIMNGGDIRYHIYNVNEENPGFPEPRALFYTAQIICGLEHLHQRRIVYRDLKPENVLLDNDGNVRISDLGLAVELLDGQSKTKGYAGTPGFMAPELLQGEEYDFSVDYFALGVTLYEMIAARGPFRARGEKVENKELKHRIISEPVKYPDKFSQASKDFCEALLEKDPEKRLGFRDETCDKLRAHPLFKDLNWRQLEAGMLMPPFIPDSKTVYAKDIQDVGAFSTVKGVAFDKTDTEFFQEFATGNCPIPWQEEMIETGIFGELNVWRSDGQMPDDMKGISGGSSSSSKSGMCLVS

[41] = molecular target: T40, EPHA5 (Homo sapiens, UniProt P54756); assay: kinome scan; assay type: binding; conditions: 10 µM
T40 construct: purchased DiscoverX (KINOMEscan)

[42] = molecular target: T41, STK33 (Homo sapiens, UniProt Q9BYT3); assay: kinome scan; assay type: binding; conditions: 10 µM
T41 construct: purchased DiscoverX (KINOMEscan)

[43] = system: Mitochondrial membrane potential; design: method as in CHEMBL1614240; conditions: reported activity, data mining; ref CHEMBL1614240; cited from earlier work

## Nc1ccc(N=Nc2ccccc2)c(N)n1 [phenazopyridine, 2,6-diamino-3-(phenylazo)pyridine]
[1]
  kinase inhibition: 100
[2]
  kinase inhibition: 98
[3]
  kinase inhibition: 64
[4]
  kinase inhibition: 75
[5]
  kinase inhibition: 91
[6]
  kinase inhibition: 100
[7]
  kinase inhibition: 96
[8]
  kinase inhibition: 97
[9]
  kinase inhibition: 100
[10]
  kinase inhibition: 100
[11]
  kinase inhibition: 86
[12]
  kinase inhibition: 85
[13]
  kinase inhibition: 89
[14]
  kinase inhibition: 100
[15]
  kinase inhibition: 94
[16]
  kinase inhibition: 100
[17]
  phosphorylation of AKT: reduced phosphorylation of AKT
[18]
  kinase inhibition: 100
[19]
  kinase inhibition: 100
[20]
  kinase inhibition: 87
[21]
  kinase inhibition: 62
[22]
  kinase inhibition: 100
[23]
  kinase inhibition: 92
[24]
  kinase inhibition: 81
[25]
  kinase inhibition: 95
[26]
  kinase inhibition: 95
[27]
  kinase inhibition: 86
[28]
  kinase inhibition: 92
[29]
  kinase inhibition: 100
[30]
  kinase inhibition: 88
[31]
  kinase inhibition: 89
[32]
  kinase inhibition: 99
[33]
  remaining binding (% of control): 100
[34]; FLT3(K663Q), 10 µM
  remaining binding (% of control): 21
[34]; FLT3 as printed (Table S4: FLT3(K663Q)), read-out: % Of control
  remaining binding at 10 µM: 21%
[35]
  kinase inhibition: 44
[36]
  kinase inhibition: 100
[37]
  kinase inhibition: 78
[38]
  kinase inhibition: 88
[39]
  kinase inhibition: 100
[40]
  remaining binding (% of control): 100
[41]
  kinase inhibition: 97
[42]
  kinase inhibition: 100
[43]
  Concentration: 16.7 µM
